According to patent US20090023700A1, “NEUROPROTECTIVE TREATMENTS” (University of Louisville Research Foundation, priority 2007, published 2009):
Where “and” joins values, the source holds several entries; their conditions need not be identical. Identical values can stand only once.

Experiments:
[1] = system: T9 contusive spinal cord injury; test: Semmes-Weinstein filament test for at-level pain (allodynia); type: in vivo, rat; settings: 100 μM, 28 d L5/6 infusion
Experimental: Whether bpV(phen) might have detrimental side effects, such as inducing pain at the level of the injury, was tested. Severe spinal cord injury can induce hypersensitivity and mechanical allodynia (a painful response to a nonpainful tactile skin stimulus) at the level of injury. […] Differences between any of the bpV(phen)- and PBS-treated groups in the overall health status, general behavior, and grooming of the rats were not observed.

AP1 = settings: macrophages; cited from earlier work
C6 cells = settings: cited from earlier work
[2] = system: T9 contusive spinal cord injury; test: Sensory-evoked potentials (SEP) after 0.4 mm T9 contusion; type: in vivo, rat; settings: 0.4 mm contusion
[3] = system: T9 contusive spinal cord injury; test: T9 spinal cord contusion, intrathecal infusion: CTB tracing, white matter (EC) and C3 axon histology; type: in vivo, rat; settings: for CTB-traced fiber area in the gracile nucleus: PBS 43+/−17
[4] = system: T9 contusive spinal cord injury; test: Grid-walking sensorimotor test after T9 contusion
Experimental: Rats received a 0.3 mm contusion at T9 and 4 h later were implanted with a lumbar catheter to start infusions with PBS (n=9) or PBS containing 100 μM bpV(phen) (n=9). The treatment was maintained for 28 d by replacing the Alzet pumps every week with ones containing fresh reagents (FIG. 1A). Weekly hindlimb grid-walking performance was used to test sensorimotor function, which is in part dependent on the primary afferents and second-order propriospinal axons of the fasciculus gracilis in the dorsal columns. […] Naive rats take ˜150 s to complete the task.
Baseline values were determined a few days before the contusion. Sensorimotor function was tested by voluntary walking on a 45×45 inch grid with 1.5 inch holes. The hindlimb footfalls were called out by two investigators observing from different sides and recorded by a third. The test was completed after 90 s of walking was observed, and the total time was recorded.

RECA1 = RECA1 immunostaining (dorsal column blood vessels at epicenter) after T9 contusion; type: in vivo, rat; settings: for area of blood vessels (RECA1) in the dorsal column: 7 d infusion started immediately after injury
Experimental: Another potential contributor to axon loss is ischemia caused by blood vessel loss. To test this possibility, the same sections were analyzed for the extent of endothelial cell/blood vessel sparing by immunostaining for RECA1. […] Therefore, epicenter RECA1 was measured in additional 7 d postinjury groups, excluding those infused at the epicenter and those with an epicenter transection (SEP), which damaged the tissue. The bpV(phen) treatment (started immediately after the injury) increased the area of blood vessels in the dorsal column in those rats infused with 30 and 100 μM bpV(phen) (FIG. 8E). […] However, there was no correlation between RECA1- and EC-stained dorsal column epicenter white matter (p=0.98).
Anterogradely labeled sensory fibers and terminals were visualized in every third section through both gracile nuclei by DAB-based immunostaining for CTB as described previously (Baker et al. (2007) Exp Neurol 205:82-91). The lumbar sections were stained to ensure that the CTB injections were successful as evidenced by traced afferents and motor neurons. […] The epicenter of maximal injury was determined by the rostrocaudal level with the least amount of spared white matter per transverse section. […]
Quantitative measurements and statistics. The extent of sensory innervation of the gracile nucleus was determined by measuring the CTB-labeled terminal fiber area in every third section as described previously (Baker et al. (2007) Exp Neurol 205:82-91). In short, images of every third section through the right and left gracile nuclei were analyzed using the density slice feature of the Scion Image software. […] Images of EC-stained sections were captured, and the positive areas were measured with Scion Image. […] The number of spared myelinated axons at C3 was counted in semithin sections using a 63× oil objective in 15.7×15.7 μm grids placed over the middle part of each fasciculus gracilis (see FIG. 4D-4F). […]

Ser/Thr phosphatases = settings: cited from earlier work
[5] = system: Madin-Darby canine kidney cells; settings: H2O2-susceptible Madin-Darby canine kidney cells; cited from earlier work
[6] = 100 μM, 7 d L5/6 infusion started immediately after 0.3 mm contusion

O.O.O.OO.OO.[K+].[OH-].[V].c1cnc2c(c1)ccc1cccnc12 [bpV(phen), potassium bisperoxo(1,10-phenanthroline)oxovanadate (V)]
induction of pain by chronic infusion [1]: do not induce pain | Semmes-Weinstein filament size evoking a response (pain at level of injury) ([1]; entire test period): not different from those of the PBS group | AP1 activation (AP1): activates | oxidative damage to DNA (C6 cells): does not cause oxidative damage to DNA | SEP amplitude, group average ([2]; 100 μM 7 d lumbar infusion started immediately, one week after contusion, PBS 6+/−6, sham 16): 21+/−7 μV | rats with an SEP above background noise ([2]; 100 μM 7 d lumbar infusion, one week after contusion, PBS one of five): four of five | SEP amplitude, group average ([2]; 100 μM 7 d lumbar infusion, one week after termination of infusion, PBS 2+/−2, sham 36): 30+/−18 μV | rats with a detectable SEP ([2]; 100 μM 7 d lumbar infusion, one week after termination of infusion, PBS one rat): all rats | CTB-traced fiber area in the gracile nucleus ([3]; 30 μM, 7 d L5/6 infusion started immediately after 0.3 mm contusion): 60+/−5% | CTB-labeled terminal fiber area in the gracile nucleus ([3]; 30 μM, 7 d intrathecal infusion at T9 started immediately after 0.3 mm contusion, PBS 17+/−7%): 47+/−6 % of sham | area of spared white matter in the dorsal column at injury epicenter ([3]; 30 μM, 7 d intrathecal infusion at T9 started immediately after 0.3 mm contusion, PBS 28+/−6%): 50+/−8 % of sham | spared dorsal column white matter at the epicenter ([3]; 100 μM, 7 d L5/6 infusion started 4 h after 0.3 mm contusion, PBS 37+/−6%): 78+/−7% | gracile nucleus innervation (CTB) ([3]; 100 μM, 7 d L5/6 infusion started 4 h after 0.3 mm contusion, PBS 66+/−11%): 100+/−7% | total white matter ([3]; 100 μM, 7 d L5/6 infusion started 4 h after 0.3 mm contusion, PBS 70+/−5%): 103+/−4% | area of spared dorsal column white matter at the injury epicenter [3, 6]: 58+/−12% | CTB-traced fiber area in the gracile nucleus [3, 6]: 93+/−11% | total white matter at the epicenter ([3]; 100 μM, 7 d L5/6 infusion started immediately after 0.3 mm contusion, PBS 68+/−6%): 90+/−12% | CTB-labeled innervation of the gracile nucleus ([3]; 100 μM, 28 d L5/6 infusion started 4 h after contusion, 42 d after injury, 14 d after end of infusion, PBS 68+/−11%): 106+/−9 % of sham | area of spared white matter in the dorsal column at the T9 injury epicenter ([3]; 100 μM, 28 d L5/6 infusion started 4 h after contusion, 42 d after injury, PBS 48+/−8%): 79+/−7% and 80% | number of myelinated axons in fasciculus gracilis at C3 ([3]; 100 μM, 28 d L5/6 infusion started 4 h after contusion, 42 d after injury, PBS 63+/−6%): 102+/−5% | CTB-traced fiber area in the gracile nucleus ([3]; 300 μM, 7 d L5/6 infusion started immediately after 0.3 mm contusion): 80+/−14% | total time to perform 90 s of grid walking ([4]; 100 μM L5/6 infusion started 4 h after contusion, 8 d, PBS 219 s, naive ~150 s): 151 s | number of hindlimb footfalls (sum of both hindlimbs), grid walk ([4]; 100 μM L5/6 infusion started 4 h after contusion, 8 d test, PBS 29+/−6, before contusion 7+/−1): 14+/−2 | rats within normal range of footfalls (3-14) ([4]; 100 μM L5/6 infusion started 4 h after contusion, day 8, PBS one of nine): seven of nine | number of hindlimb footfalls, grid walk ([4]; 100 μM, 28 d L5/6 infusion started 4 h after contusion, 29 d test, PBS 13+/−2): 6+/−1 | total time to perform 90 s of grid walking ([4]; 100 μM, 28 d L5/6 infusion started 4 h after contusion, 36 d, PBS 200 s): 125 s | area of blood vessels (RECA1) in the dorsal column (RECA1; 30 μM): increased | area of blood vessels (RECA1) in the dorsal column (RECA1; 100 μM): increased | blood vessels (RECA1) in the dorsal column at the epicenter (RECA1; 7 d infusion started 4 h after injury, area not significantly different from sham): sparing | inhibition of Ser/Thr phosphatases (Ser/Thr phosphatases): not | cell death [5]: does not cause death
